Laboratory results as given in ChEMBL document CHEMBL3997822, “Asymmetric total synthesis of tetrahydroprotoberberine derivatives and evaluation of their binding affinities at dopamine receptors” (Bioorg Med Chem Lett, 2017).

Experiments:
D(4) dopamine receptor [1] = target: T1, D(4) dopamine receptor (Homo sapiens, UniProt P21917); assay: Displacement of [3H]N-methylspiperone from human dopamine D4 receptor after 1 hr
T1 sequence (P21917 whole entry): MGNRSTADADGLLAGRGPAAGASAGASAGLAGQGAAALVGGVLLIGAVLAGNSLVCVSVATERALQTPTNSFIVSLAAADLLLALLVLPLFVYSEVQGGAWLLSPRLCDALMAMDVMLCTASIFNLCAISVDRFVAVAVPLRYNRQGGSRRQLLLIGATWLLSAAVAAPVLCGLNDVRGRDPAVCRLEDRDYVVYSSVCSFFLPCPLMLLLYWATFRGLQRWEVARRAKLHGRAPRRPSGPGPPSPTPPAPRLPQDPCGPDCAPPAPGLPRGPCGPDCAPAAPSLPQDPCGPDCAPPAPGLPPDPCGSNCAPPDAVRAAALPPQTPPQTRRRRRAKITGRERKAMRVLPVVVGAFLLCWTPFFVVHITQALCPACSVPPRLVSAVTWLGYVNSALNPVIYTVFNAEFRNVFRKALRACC

D(1B) dopamine receptor [2] = target: T2, D(1B) dopamine receptor (Homo sapiens, UniProt P21918); assay: Displacement of [3H]SCH23390 from human dopamine D5 receptor after 1 hr
D(2) dopamine receptor [3] = target: T3, D(2) dopamine receptor (Homo sapiens, UniProt P14416); assay: Displacement of [3H]N-methylspiperone from human dopamine D2 receptor after 1 hr
D(3) dopamine receptor [4] = target: T4, D(3) dopamine receptor (Homo sapiens, UniProt P35462); assay: Displacement of [3H]N-methylspiperone from human dopamine D3 receptor after 1 hr
D(1A) dopamine receptor [5] = target: T5, D(1A) dopamine receptor (Homo sapiens, UniProt P21728); assay: Displacement of [3H]SCH23390 from human dopamine D1 receptor after 1 hr
D(1A) dopamine receptor [6] = target: T5, D(1A) dopamine receptor; assay: Displacement of [3H]SCH23390 from human 3HA-tagged dopamine D1 receptor expressed in HEK293 cells after 1 hr; format: cell-based
D(4) dopamine receptor [7] = target: T1, D(4) dopamine receptor; assay: Displacement of [3H]SCH23390 from human dopamine D4 receptor expressed in HEK293 cells after 1 hr; format: cell-based
D(3) dopamine receptor [8] = target: T4, D(3) dopamine receptor; assay: biochemical
D(1B) dopamine receptor [9] = target: T2, D(1B) dopamine receptor; details: hek293
D(2) dopamine receptor [10] = target: T3, D(2) dopamine receptor; assay: Displacement of [3H]SCH23390 from human FLAG-tagged dopamine D2 receptor expressed in HEK293 cells after 1 hr; format: cell-based

T2 sequence (P21918 whole entry): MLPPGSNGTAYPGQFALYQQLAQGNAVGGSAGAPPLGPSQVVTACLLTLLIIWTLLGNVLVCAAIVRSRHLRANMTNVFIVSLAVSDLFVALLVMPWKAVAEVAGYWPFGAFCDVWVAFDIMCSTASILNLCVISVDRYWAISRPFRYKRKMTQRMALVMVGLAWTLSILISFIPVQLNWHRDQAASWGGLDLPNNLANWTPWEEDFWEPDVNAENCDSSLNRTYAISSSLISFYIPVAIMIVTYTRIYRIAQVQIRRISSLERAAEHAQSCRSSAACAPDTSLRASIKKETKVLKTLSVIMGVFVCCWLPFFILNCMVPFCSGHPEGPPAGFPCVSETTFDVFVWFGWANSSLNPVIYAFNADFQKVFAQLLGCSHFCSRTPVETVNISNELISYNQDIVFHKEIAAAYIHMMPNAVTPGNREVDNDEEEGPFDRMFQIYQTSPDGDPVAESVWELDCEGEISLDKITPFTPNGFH
T4 sequence (P35462 whole entry): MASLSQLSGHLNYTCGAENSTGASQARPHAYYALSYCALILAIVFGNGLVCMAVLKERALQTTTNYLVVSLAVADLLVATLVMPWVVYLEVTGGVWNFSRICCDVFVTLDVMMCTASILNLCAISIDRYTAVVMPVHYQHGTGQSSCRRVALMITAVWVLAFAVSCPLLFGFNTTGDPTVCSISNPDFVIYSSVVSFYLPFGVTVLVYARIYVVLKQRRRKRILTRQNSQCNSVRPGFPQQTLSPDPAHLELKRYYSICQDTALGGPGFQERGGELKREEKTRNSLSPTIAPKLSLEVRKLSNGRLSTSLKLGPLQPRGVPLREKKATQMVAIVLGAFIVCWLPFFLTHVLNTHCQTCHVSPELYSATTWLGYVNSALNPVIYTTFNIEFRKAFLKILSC
T3 sequence (P14416 whole entry): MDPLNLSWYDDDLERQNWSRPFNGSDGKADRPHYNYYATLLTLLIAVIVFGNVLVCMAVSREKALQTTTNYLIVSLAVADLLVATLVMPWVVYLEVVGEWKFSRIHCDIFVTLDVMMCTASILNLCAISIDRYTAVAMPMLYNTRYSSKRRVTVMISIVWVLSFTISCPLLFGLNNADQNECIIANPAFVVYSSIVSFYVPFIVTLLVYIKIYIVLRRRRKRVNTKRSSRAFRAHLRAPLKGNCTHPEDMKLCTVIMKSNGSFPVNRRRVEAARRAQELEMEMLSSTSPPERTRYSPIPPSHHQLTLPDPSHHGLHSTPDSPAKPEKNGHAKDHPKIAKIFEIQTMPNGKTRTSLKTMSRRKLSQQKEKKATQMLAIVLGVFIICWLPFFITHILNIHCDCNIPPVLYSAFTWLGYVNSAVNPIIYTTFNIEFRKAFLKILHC
T5 sequence (P21728 whole entry): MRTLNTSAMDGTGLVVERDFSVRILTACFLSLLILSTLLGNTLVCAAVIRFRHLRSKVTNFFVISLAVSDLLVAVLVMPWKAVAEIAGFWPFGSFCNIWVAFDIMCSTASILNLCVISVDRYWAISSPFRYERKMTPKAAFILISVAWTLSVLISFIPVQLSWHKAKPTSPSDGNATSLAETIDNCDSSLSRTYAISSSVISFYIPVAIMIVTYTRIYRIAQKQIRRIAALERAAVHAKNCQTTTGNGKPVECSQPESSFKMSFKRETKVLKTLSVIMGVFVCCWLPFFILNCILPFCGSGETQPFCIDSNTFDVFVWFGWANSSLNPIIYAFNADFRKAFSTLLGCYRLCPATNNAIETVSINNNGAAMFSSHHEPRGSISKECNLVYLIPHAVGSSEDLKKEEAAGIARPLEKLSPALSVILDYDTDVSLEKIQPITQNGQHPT

| Ki (D(4) dopamine receptor [1]) [nM] | Ki (D(1B) dopamine receptor [2]) [nM] | Ki (D(2) dopamine receptor [3]) [nM] | Ki (D(3) dopamine receptor [4]) [nM] | Ki (D(1A) dopamine receptor [5]) [nM] | Structure (SMILES) | Ki (D(1A) dopamine receptor [6]) [nM] | Ki (D(4) dopamine receptor [7]) [nM] | Ki (D(3) dopamine receptor [8]) [nM] | Ki (D(1A) dopamine receptor [6]; hek293) [nM] | Ki (D(1B) dopamine receptor [9]) [nM] | Ki (D(2) dopamine receptor [10]) [nM] |
| --- | --- | --- | --- | --- | --- | --- | --- | --- | --- | --- | --- |
| 1980 | 15.1 | 49.2 | 82.4 | 6.5 | COc1c(O)ccc2c1CN1CCc3cc4c(cc3[C@@H]1C2)OCO4 |  |  |  |  |  |  |
| > 1000 | 313 | 42.4 | 262 | 199 | COc1cc2c(cc1O)CCN1Cc3c(ccc(OC)c3OC)C[C@@H]21 |  |  |  |  |  |  |
|  |  |  |  |  | COc1cc2c(cc1O)[C@@H]1Cc3ccc(OC)c(OC)c3CN1CC2 | […] | 77.4 | 37.3 |  |  |  |
| > 1000 | 242 | 533 | 1710 | 107 | COc1cc2c(cc1OC)[C@@H]1Cc3ccc(O)c(OC)c3CN1CC2 |  |  |  |  |  |  |
|  |  |  |  |  | COc1cc2c(cc1OC)[C@@H]1Cc3ccc(OC)c(OC)c3CN1CC2 [TETRAHYDROPALMATINE] |  | > 1000 |  | 153 | 305 | 1120 |

| Structure (SMILES) | Ki (D(4) dopamine receptor [1]) [nM] | Ki (D(1B) dopamine receptor [2]) [nM] | Ki (D(2) dopamine receptor [3]) [nM] | Ki (D(3) dopamine receptor [4]) [nM] | Ki (D(1A) dopamine receptor [5]) [nM] | Ki (D(1A) dopamine receptor [6]) [nM] | Ki (D(4) dopamine receptor [7]) [nM] | Ki (D(3) dopamine receptor [8]) [nM] | Ki (D(1A) dopamine receptor [6]; hek293) [nM] | Ki (D(1B) dopamine receptor [9]) [nM] | Ki (D(2) dopamine receptor [10]) [nM] |
| --- | --- | --- | --- | --- | --- | --- | --- | --- | --- | --- | --- |
| COc1ccc2c(c1OC)CN1CCc3cc4c(cc3[C@@H]1C2)OCO4 [CANADINE] | 486 | 62.1 | 80.2 | 433 | 48.6 |  |  |  |  |  |  |
